Several values for one entry are separate records, joined by “and”; a condition that tells them apart may be missing. Identical values can stand only once. Entries after “also recorded” stand apart in the source; their conditions may differ.
Legend:
[1] = tested on: HIV-1 RT mutant resistance test vector T69SSA; test: Phenotypic susceptibility assay, site directed RTV T69SSA; type: cell-based; conditions: RTV with T69SSA vs wild type RTV; for Average fold reduction in susceptibility: 3 replicates
Procedure: (§1) Resistance tests were carried out with resistance test vectors using two host cell types. Resistance test vector viral particles were produced by a first host cell (the resistance test vector host cell) that was prepared by transfecting a packaging host cell with the resistance test vector and the packaging expression vector. The resistance test vector viral particles were then used to infect a second host cell (the target host cell) in which the expression of the indicator gene is measured.
(§2) The resistance test vectors containing a functional luciferase gene cassette were constructed and host cells were transfected with the resistance test vector DNA. The resistant test vectors contained patient-derived reverse transcriptase and protease sequences that were either susceptible or resistant to the antiretroviral agents, such as nucleoside reverse transcriptase inhibitors, non-nucleoside reverse transcriptase inhibitors and protease inhibitors. The resistance test vector viral particles produced by transfecting the resistance test vector DNA into host cells, either in the presence or absence of protease inhibitors, were used to infect target host cells grown either in the absence of NRTI or NNRTI or In the presence of increasing concentrations of the drug. The amount of luciferase activIty produced in infected target host cells in the presence of drug was compared to the amount of luciferase produced in infected target host cells in the absence of drug. Drug resistance was measured as the amount of drug required to inhibit by 50% the luciferase activity detected in the absence of drug (Inhibitory concentration 50%, IC50). The IC50 values were determined by plotting percent drug inhibition vs. log 10 drug concentration.
(§3) Host cells were seeded in 10-cm-diameter dishes and were transfected several days after plating with resistance test vector plasmid DNA and the envelope expression vector. Transfections were performed using a calcium-phosphate precipitation procedure. The cell culture media containing the DNA precipitate was replaced with fresh medium, from one to 24 hours, after transfection. Cell culture media containing resistance test vector viral particles was harvested one to four days after transfection and was passed through a […] filter before being stored at −80° C. HIV capsid protein (p24) levels in the harvested cell culture media were determined by an EIA method as described by the manufacturer (SIAC; Frederick, Md.). Before infection, target cells (293 and 293/T) were plated in cell culture media. Control infections were performed using cell culture media from mock transfections (no DNA) or transfections containing the resistance test vector plasmid DNA without the envelope expression plasmid. One to three or more days after infectIon the media was removed and cell lysis buffer (Promega) was added to each well. Cell lysates were assayed for luciferase activity (FIG. 3). The inhibitory effect of the drug was determined using the following equation:
(§4) % luciferase inhibition=1−(RLUluc[drug]÷RLUluc)×100
(§5) where RLUluc [drug] is the relative light unit of luciferase activity in infected cells in the presence of drug and RLUluc is the Relative Light Unit of luciferase activity in infected cells in the absence of drug. IC50 values were obtained from the sigmoidal curves that were generated from the data by plotting the percent inhibition of luciferase activity vs. the log 10 drug concentration. The drug inhibition curves are shown in (FIG. 3).
(§6) Genotypic changes that are observed to correlate with changes in phenotypic patterns of drug susceptibility are evaluated by construction of resistance test vectors containing the specific mutation on a defined, wild-type (drug susceptible) genetic background. Mutations may be incorporated alone and/or in combination with other known drug resistance mutations that are thought to modulate the susceptibility of HIV to a certain drug or class of drugs. […]

[2] = tested on: HIV-1 RT mutant resistance test vector 41 + 215 (M41L and T215Y); test: Phenotypic susceptibility assay, site directed RTV 41 + 215; type: cell-based; conditions: RTV with 41 + 215; 4 replicates
Procedure: as §1, §2, §3, §4, §5, §6

[3] = tested on: patient RTV-136, RTV-240, RTV-955 and RTV-960 (A62V, V75I, F77L, F116Y, Q151M); test: Phenotypic susceptibility assay, patient isolates with multi-NRTI resistance mutations; type: cell-based, HIV-1; conditions: for susceptibility compared to wild-type control RTV: patient RTV pools with MDR mutations
Procedure: In these experiments patient-derived segment(s) corresponding to the HIV protease and reverse transcriptase coding regions were either patient-derived segments amplified by the reverse transcription-polymerase chain reaction method (RT-PCR) using viral RNA isolated from viral particles present in the serum of HIV-infected individuals or were mutants of wild type HIV-1 made by site directed mutagenesis of a parental clone of resistance test vector DNA. Isolation of viral RNA was performed using standard procedures (e.g. RNAgents Total RNA Isolation System, Promega, Madison Wis. or RNAzol, Tel-Test, Friendswood, Tex.). The RT-PCR protocol was divided into two steps. A retroviral reverse transcriptase [e.g. Moloney MuLV reverse transcriptase (Roche Molecular Systems, Inc., Branchburg, N.J.), or avian myeloblastosis virus (AMV) reverse transcriptase, (Boehringer Mannheim, Indianapolis, Ind.)] was used to copy viral RNA into cDNA. The cDNA was then amplified using a thermostable DNA polymerase [e.g. Taq (Roche Molecular Systems, Inc., Branchburg, N.J.), Tth (Roche Molecular Systems, Inc., Branchburg, N.J.), PrimeZyme (isolated from Thermus brockianus, Biometra, Gottingen, Germany)] or a combination of thermostable polymerases as described for the performance of “long PCR” (Barnes, W. M., (1994) Proc. Natl. Acad. Sci, USA 91, 2216-2220) [e.g. Expand High Fidelity PCR System (Taq+Pwo), (Boehringer Mannheim. Indianapolis, Ind.) OR GeneAmp XL PCR kit (Tth+Vent), (Roche Molecular Systems, Inc., Branchburg, N.J.)].
Resistance test vectors incorporating the “test” patient-derived segments were constructed as described in PCT International Application No. PCT/US97/01609, filed Jan. 29, 1997 using an amplified DNA product of 1.5 kB prepared by RT-PCR using viral RNA as a template and oligonucleotides PDSApa (1) and PDSAge (2) as primers, followed by digestion with ApaI and AgeI or the isoschizimer PINAI. To ensure that the plasmid DNA corresponding to the resultant resistance test vector comprises a representative sample of the HIV viral quasi-species present in the serum of a given patient, many (>100) independent E. coli transformants obtained in the construction of a given resistance test vector were pooled and used for the preparation of plasmid DNA.
as §1
as §2, with “The IC50 values were determined by plotting percent drug inhibition vs. log 10 drug concentration.” left out

[4] = tested on: HIV strains resistant to abacavir; conditions: cited from earlier work

## Cc1cn([C@H]2C=C[C@@H](CO)O2)c(=O)[nH]c1=O [d4T, stavudine]
[1]
  effect on susceptibility (words): did not reduce d4T susceptibility
  Average fold reduction in susceptibility: 2 fold and less than two-fold and 1.58 fold
[2]
  Average fold reduction in susceptibility: 1.61 fold
[3]; four patient viruses with multi-NRTI resistance mutations (FIG. 4)
  fold reduced susceptibility: 4-12 fold
[3]
  susceptibility compared to wild-type control RTV: decrease in susceptibility to d4T; also recorded: decreases in susceptibility
[4]
  cross resistance of abacavir-resistant strains: not to d4T or ZDV

## Cc1cn([C@H]2C[C@H](N=[N+]=[N-])[C@@H](CO)O2)c(=O)[nH]c1=O [AZT, zidovudine]
[1]
  effect on susceptibility (words): small but significant change in susceptibility; also recorded: reduced AZT susceptibility slightly
  Average fold reduction in susceptibility: approximately two-fold and 1.98 fold
[2]
  Average fold reduction in susceptibility: 17.82 fold
[3]
  susceptibility compared to wild-type control RTV: decreases in susceptibility
[4]
  cross resistance of abacavir-resistant strains: not to d4T or ZDV

## Nc1ccn([C@H]2CC[C@@H](CO)O2)c(=O)n1 [ddC, zalcitabine]
[1]
  Average fold reduction in susceptibility: 1.55 fold
[2]
  Average fold reduction in susceptibility: 1.21 fold
[3]
  susceptibility compared to wild-type control RTV: decreases in susceptibility
[4]
  cross resistance of abacavir-resistant strains: Cross resistance

## Nc1nc(NC2CC2)c2ncn([C@H]3C=C[C@@H](CO)C3)c2n1 [ABC, abacavir]
[1]
  Average fold reduction in susceptibility: 2.52 fold
[2]
  Average fold reduction in susceptibility: 1.68 fold
[3]
  susceptibility compared to wild-type control RTV: decreases in susceptibility
[4]; multiple mutations (at least three)
  fold resistance: 10 fold

## O=c1[nH]cnc2c1ncn2[C@H]1CC[C@@H](CO)O1 [ddI, didanosine]
[1]
  Average fold reduction in susceptibility: 1.32 fold
[2]
  Average fold reduction in susceptibility: 1.09 fold
[3]
  susceptibility compared to wild-type control RTV: decreases in susceptibility
[4]
  cross resistance of abacavir-resistant strains: Cross resistance
